Laboratory results: patent US12428416B2 (California Institute of Technology, priority 2018, dated 2025)

How the values were obtained:
ERK1 = ERK1 (Homo sapiens, UniProt P27361); assay: ERK1 and 2 Enzymatic Inhibition Assay (ERK1); format: biochemical; details: 10 assay concentrations 2×10^−6 M to 6×10^−11 M, 1% DMSO
Procedure: (§1) ERK1 and 2 Enzymatic Inhibition Assay
(§2) For the Ki determination assay, 200 μM stock solutions of compounds were subjected to a serial, semi-logarithmic dilution using 100% DMSO as a solvent. 10 distinct concentrations were prepared, with a dilution endpoint of 6×10^−9 M in 100% DMSO. 100% DMSO was used as a control. 10 μL from each of the serial dilutions were aliquoted into separate wells of a 96-well plate and 90 μL of water were added to each of those wells. The plate was shaken thoroughly, and 5 μL from each of the plate's wells were transferred into wells of the assay plate. The final volume of wells in the assay plate was 50 μL. All compounds were tested at 10 assay concentrations in the range from 2×10^−6 M to 6×10^−11 M. The final DMSO concentration in the wells of the assay plate was 1% in all cases.

[1] = Compound metabolic stability in hepatocytes; format: in vitro ADME; details: hepatocytes from mice and rats (species not given); class symbols without key
Procedure: The metabolic stability of compounds was determined in hepatocytes from mice and rats. Compounds were diluted to 5 μM in Williams' Medium E from 10 mM stock solutions. 10 μL of each compound was aliquoted into a well of a 96-well plate and reactions were started by aliquoting 40 μL of a 625,000 cells/mL suspension into each well. The plate was incubated at 37° C. with 5% CO2. At each corresponding time point, the reaction was stopped by quenching with ACN containing internal standards (IS) at a 1:3. Plates were shaken at 500 rpm for 10 min, and then centrifuged at 3,220×g for 20 minutes. Supernatants were transferred to another 96-well plate containing a dilution solution. Supernatants were analyzed by LC/MS/MS.
Compound half-life was estimated using the following equation: % Remaining Compound=Peak Area Ratios of Tested Compound vs. Internal Standard at End Point/Peak Area Ratios of Tested Compound vs. Internal Standard at Start Point Mouse Xenograft Studies

[2] = tested on: drug-sensitive cell lines of Table 4; assay: Cell line growth retardation assay, average over sensitive cohort; format: cell-based, Human; details: Homo sapiens, 144 h; geometric mean of IC50s over sensitive cohort (Table 4); 6 days growth; read-out: AvgSens IC50
Procedure: (§3) Cell Line Growth Retardation Assay
(§4) Cells were seeded at densities of 1,000-5,000 cells per well in 48-well tissue culture plates. After a 24 h rest period, cells were treated with compound at 10 μM, 2 μM, 0.4 μM, 0.08 μM, 0.016 μM, and 0.0032 μM. A group of cells were treated with the vehicle in which the compound was prepared and served as a control. The cells were grown in the presence of compounds for 6 days and were counted on day 0 and day 6. All cell counting was performed using a Synentec Cellavista plate imager. […] Growth inhibition was calculated as a ratio of cell population doublings in the presence of compound versus the absence of compound. […] IC50 values for each compound were calculated by fitting curves to data points from each dose-response assay using the Proc NLIN function in SAS for Windows version 9.2 (SAS Institute, Inc.).
(§5) Designation of Sensitivity and Resistant Cohorts and Calculation of Average IC50 Values
(§6) Human cancer cell lines were grouped as “sensitive” or “resistant” to ERK1 inhibition based on whether their growth was retarded by KO-947 (i.e., 1,5,6,8-tetrahydro-6-(phenylmethyl)-3-(4-pyridinyl)-7H-pyrazolo[4,3-g]quinazolin-7-one) and SCH772984 (i.e., (3R)-1-[2-oxo-2-[4-[4-(2-pyrimidinyl)phenyl]-1-piperazinyl]ethyl]-N-[3-(4-pyridinyl)-1H-indazol-5-yl]-3-pyrrolidinecarboxamide) (data not shown; see Table 4). These sensitive and resistant cohorts were interrogated for response to each compound, and IC50s were calculated for each cell line using the same technique described above. Average IC50s for the sensitive and resistant cohorts were calculated as geometric means of the group.

[3] = tested on: phosphorylated RSK (pRSK) in M275 cells; assay: Western Blot for Total and pRSK; format: cell-based, human; details: treatment for 4.5 hours and 24 hours, 200 nM
Procedure: Western Blot for Total and pRSK
For Western blot assays (see FIG. 14), protein lysates were obtained from either the M275 or M202 human melanoma cancer cell lines. For assay, cells were plated on 10 cm dishes and treated 24 hours later with either 200 nM of test compound in DMSO or DMSO control for 4.5 or 24 hours. After the treatment period, cells were washed twice in ice-cold PBS and lysed for 15 minutes at 4° C. using a mild lysis buffer (Cell Signaling Technology) containing a mixture of protease inhibitors (Calbiochem) and 1 mmol/L phenlymethylsulfonlyfluoride. Insoluble material was removed by centrifugation at 10,000×g for 10 minutes. Protein concentration of each sample was quantified by BCA (Pierce), resolved by SDS-PAGE, and transferred to nitrocellulose membranes (iBlot, Invitrogen Life Technology). Total (32D7, Cell Signaling Technologies) and phosphorylated ([…]; D1E9, Cell Signaling Technology) RSK protein were detected using the indicated antibody clones. All blots were repeated in duplicate and relative levels of individual proteins compared to a loading control (α-tubulin) (11H10; Cell Signaling Technology) were quantitated using the ECL Plus chemifluorescent reagent (Amersham Biosciences) and the ChemiDoc™ Touch Imaging System (BioRad).

[4] = tested on: drug-resistant cell lines of Table 4; assay: Cell line growth retardation assay, average over resistant cohort; format: cell-based, Human; details: Homo sapiens, 144 h; geometric mean of IC50s over resistant cohort (Table 4); 6 days growth; read-out: AvgRes IC50
Procedure: as §3, §4, §5, §6

ERK2 = ERK2 (Homo sapiens, UniProt P28482); assay: ERK1 and 2 Enzymatic Inhibition Assay (ERK2); format: biochemical; details: 10 assay concentrations 2×10^−6 M to 6×10^−11 M, 1% DMSO
Chain of ERK2 (P28482 whole entry): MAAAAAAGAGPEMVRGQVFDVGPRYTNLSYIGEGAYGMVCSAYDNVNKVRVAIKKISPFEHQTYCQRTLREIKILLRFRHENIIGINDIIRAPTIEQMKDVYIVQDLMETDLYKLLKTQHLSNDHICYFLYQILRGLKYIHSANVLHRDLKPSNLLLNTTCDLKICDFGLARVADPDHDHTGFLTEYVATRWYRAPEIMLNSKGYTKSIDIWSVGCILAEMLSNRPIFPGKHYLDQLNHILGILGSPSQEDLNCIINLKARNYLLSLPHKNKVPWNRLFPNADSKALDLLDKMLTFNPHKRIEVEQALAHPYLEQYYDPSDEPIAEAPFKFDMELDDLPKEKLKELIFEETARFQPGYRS
Procedure: as §1, §2

[5] = Mouse Maximum Tolerated Dose Studies; format: in vivo; details: mice, oral gavage (PO)
Procedure: Mouse Maximum Tolerated Dose Studies
For maximum tolerated dose (MTD) determination studies, non-tumor bearing CD-1 athymic nude mice were randomized into […] treatment groups (5 mice per group) and treated with either 400, 300, 200, 100, 50 or 25 mg/kg of compound by daily PO, or 200, 100, 50, 25, or 12.5 mg/kg of compound twice daily PO. Mice were weighed daily and % body weight loss was calculated relative to individual mouse body weights at the start of treatment. […] MTD was determined as the highest dose at which a mean body weight loss of <10% over 14 days of dosing was observed.

Chain of ERK1 (P27361 whole entry): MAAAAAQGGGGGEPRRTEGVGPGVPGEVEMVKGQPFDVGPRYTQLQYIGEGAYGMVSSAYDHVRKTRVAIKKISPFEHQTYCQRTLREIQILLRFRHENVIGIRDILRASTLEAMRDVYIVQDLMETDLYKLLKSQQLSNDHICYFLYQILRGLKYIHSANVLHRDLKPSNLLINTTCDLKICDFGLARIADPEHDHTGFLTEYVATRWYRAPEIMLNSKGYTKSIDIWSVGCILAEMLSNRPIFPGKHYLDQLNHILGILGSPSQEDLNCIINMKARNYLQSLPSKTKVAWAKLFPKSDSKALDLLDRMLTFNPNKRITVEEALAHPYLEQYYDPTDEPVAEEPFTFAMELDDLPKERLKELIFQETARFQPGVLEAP

SMILES	Kd (ERK1) [nM]	half-life at 1 µM [1] [min]	Kd (ERK2) [nM]	IC50 [2] [nM]	level of phosphorylated RSK (pRSK) [3]	IC50 [4] [nM]	maximum tolerated QD dose ([5]; daily (QD)) [mg/kg]	maximum tolerated BID dose ([5]; twice daily (BID)) [mg/kg]
CC(NC(=O)c1ncc(-c2c[nH]c3ncc(N4CCOCC4)cc23)cn1)c1ccccc1 (stereo in doubt) [Compound 6, (R)-5-(5-morpholino-1H-pyrrolo[2,3-b]pyridin-3-yl)-N-(1-phenylethyl)pyrimidine-2-carboxamide]	≤ 10	> 25	≤ 10	≤ 250	decrease	> 500	200	100
CC(NC(=O)c1ncc(-c2c[nH]c3ncc(N4CCOCC4)cc23)cn1)c1ccccc1 (stereo in doubt) [Compound 22, (S)-5-(5-morpholino-1H-pyrrolo[2,3-b]pyridin-3-yl)-N-(1-phenylethyl)pyrimidine-2-carboxamide]	> 100	> 25	> 100	> 500	–	> 500	–	–
O=C(c1ncc(-c2c[nH]c3ncc(N4CCOCC4)cc23)cn1)N1CCCC1c1ccccn1 (stereo not shown) [Compound 26, (5-(5-morpholino-1H-pyrrolo[2,3-b]pyridin-3-yl)pyrimidin-2-yl)(2-(pyridin-2-yl)pyrrolidin-1-yl)methanone]	11 to 100	< 25	> 100	> 500	–	> 500	–	–
c1ccc([C@H]2COC(c3ncc(-c4c[nH]c5ncc(N6CCOCC6)cc45)cn3)=N2)cc1 [Compound 27, (S)-4-(3-(2-(4-phenyl-4,5-dihydrooxazol-2-yl)pyrimidin-5-yl)-1H-pyrrolo[2,3-b]pyridin-5-yl)morpholine]	≤ 10	> 25	≤ 10	> 500	–	> 500	–	–
c1ccc([C@@H]2COC(c3ncc(-c4c[nH]c5ncc(N6CCOCC6)cc45)cn3)=N2)cc1 [Compound 28, (R)-4-(3-(2-(4-phenyl-4,5-dihydrooxazol-2-yl)pyrimidin-5-yl)-1H-pyrrolo[2,3-b]pyridin-5-yl)morpholine]	> 100	> 25	> 100	> 500	–	> 500	–	–
c1ccc([C@@H]2CN=C(c3ncc(-c4c[nH]c5ncc(N6CCOCC6)cc45)cn3)O2)cc1 [Compound 29, (R)-4-(3-(2-(5-phenyl-4,5-dihydrooxazol-2-yl)pyrimidin-5-yl)-1H-pyrrolo[2,3-b]pyridin-5-yl)morpholine]	11 to 100	> 25	11 to 100	> 500	–	> 500	–	–

Now from value to molecule, other results behind:

Kd (ERK1) [nM]	half-life at 1 µM [1] [min]	Kd (ERK2) [nM]	SMILES	IC50 [2] [nM]	level of phosphorylated RSK (pRSK) [3]	IC50 [4] [nM]	maximum tolerated QD dose ([5]; daily (QD)) [mg/kg]	maximum tolerated BID dose ([5]; twice daily (BID)) [mg/kg]
≤ 10	> 25	≤ 10	Cc1cccc(C(C)NC(=O)c2ncc(-c3c[nH]c4ncc(N5CCOCC5)cc34)cn2)c1 (stereo in doubt) [Compound 50, (R)-5-(5-morpholino-1H-pyrrolo[2,3-b]pyridin-3-yl)-N-(1-(m-tolyl)ethyl)pyrimidine-2-carboxamide]	≤ 250	–	> 500	–	–
≤ 10	< 25	≤ 10	O=C(NCCc1ccccc1)c1ncc(-c2c[nH]c3ncc(N4CCOCC4)cc23)cn1 [Compound 11, 5-(5-morpholino-1H-pyrrolo[2,3-b]pyridin-3-yl)-N-phenethylpyrimidine-2-carboxamide]	251 to 500	–	> 500	–	–
≤ 10	> 25	≤ 10	C[C@@H](NC(=O)c1ncc(-c2c[nH]c3ncc(N4CCOCC4)cc23)cn1)c1cccc(Cl)c1 [Compound 20, (R)—N-(1-(3-chlorophenyl)ethyl)-5-(5-morpholino-1H-pyrrolo[2,3-b]pyridin-3-yl)pyrimidine-2-carboxamide]	≤ 250	–	> 500	–	–
≤ 10	> 25	≤ 10	C[C@@H](NC(=O)c1ncc(-c2c[nH]c3ncc(N4CCOCC4)cc23)cn1)c1ccc(Cl)cc1 [Compound 25, (R)—N-(1-(4-chlorophenyl)ethyl)-5-(5-morpholino-1H-pyrrolo[2,3-b]pyridin-3-yl)pyrimidine-2-carboxamide]	> 500	–	> 500	–	–
≤ 10	< 25	≤ 10	C[C@H](Cc1ccccc1)NC(=O)c1ncc(-c2c[nH]c3ncc(N4CCOCC4)cc23)cn1 [Compound 31, (R)-5-(5-morpholino-1H-pyrrolo[2,3-b]pyridin-3-yl)-N-(1-phenylpropan-2-yl)pyrimidine-2-carboxamide]	> 500	–	> 500	–	–
≤ 10	–	11 to 100	O=C(NCCc1ccc(F)cc1)c1ncc(-c2c[nH]c3ncc(N4CCOCC4)cc23)cn1 [Compound 62, N-(4-fluorophenethyl)-5-(5-morpholino-1H-pyrrolo[2,3-b]pyridin-3-yl)pyrimidine-2-carboxamide]	> 500	–	> 500	–	–
≤ 10	–	≤ 10	Cc1ccccc1CCNC(=O)c1ncc(-c2c[nH]c3ncc(N4CCOCC4)cc23)cn1 [Compound 65, N-(2-methylphenethyl)-5-(5-morpholino-1H-pyrrolo[2,3-b]pyridin-3-yl)pyrimidine-2-carboxamide]	≤ 250	–	> 500	–	–
≤ 10	–	≤ 10	N#Cc1ccccc1CCNC(=O)c1ncc(-c2c[nH]c3ncc(N4CCOCC4)cc23)cn1 [Compound 66, N-(2-cyanophenethyl)-5-(5-morpholino-1H-pyrrolo[2,3-b]pyridin-3-yl)pyrimidine-2-carboxamide]	> 500	–	> 500	–	–
